Data: patent publication US20150359794A1, “IMPAIRMENT OF THE LARGE RIBOSOMAL SUBUNIT PROTEIN RPL24 BY DEPLETION OR ACETYLATION” (Buck Institute for Research on Aging, priority 2014, published 2015)

How the values were obtained:
tubulin = test: Western blot for tubulin acetylation in SKBR3 cells; type: cell-based, human; details: western blot (FIG. 4c,d)
From the text: Like TSA, the HDAC6 (class IIb)-selective inhibitors, Tubacin and Compound 101, as well as HDAC6 siRNA, all induce tubulin acetylation as expected as well as ribosomal protein acetylation, including the band that co-migrates with RPL24 (FIG. 4c,d, indicated by arrows). […] Thus, the tubulin acetylating effects of pan-histone deacetylase inhibition, known to be mediated by inhibition or knockdown of HDAC6, correspond to the observed ribosome and RPL24 acetylation responses induced by TSA.
Cells are lysed in RIPA buffer (10 mM Tris-HCL (pH 8.0), 1 mM EDTA, 0.5 mM EGTA, 1% triton X-100, 0.1% sodium deoxycholate, 0.1% SDS, 140 mM NaCl, 20 mM NaF, Complete EDTA-free protease inhibitor tablets (Roche Diagnostics Corp., Basel, Switzerland) and the phosphatase inhibitor cocktail PhosSTOP (Roche)), the latter two as indicated by the manufacturer's protocol. Equal amounts of protein are diluted in 2× sample buffer. Immunoblots on PVDF (Polyvinyldene Fluoride) membranes are blocked with nonfat milk in tris-buffered saline with 0.05% tween-20 (TBST). The following antibodies are incubated with membranes in 5% nonfat milk in TBST: RPL24 (Proteintech, Chicago, Ill.), Cyclin D1, Rack1, RPL4 (Santa Cruz Biotechnology, Santa Cruz, Calif.), NBS1, GAPDH (EMD Millipore Corporation, Chicago, Ill.), Survivin, β-tubulin, acetyl-lysine, eIF6, acetyl-H2B, H2B, (Cell Signaling Technology, Boston, Mass.), acetyl-tubulin, tubulin (Sigma Aldrich (St. Louis, Mo.))
FIG. 4: Ribosomal protein acetylation is induced by histone deacetylase inhibition. (a-c) SKBR3 cells were treated with the indicated drugs for the indicated period of time. (d) SKBR3 cells were transfected with the indicated siRNAs and allowed to incubate for 72 hours. (a, c, d). The indicated western blots were performed in ribopellets, total cytoplasmic lysates, or nuclear extracts. (b) Mass spectrometry was performed on ribopellets as described in materials and methods and in FIG. 6. The fold change in acetylated peptide to total peptide case by TSA treatment is plotted. Only proteins that underwent at least a two-fold induction upon TSA treatment are shown. Error bars represent the standard error of the mean for three biological replicates.

SKBR3 cells = test: Polysome profiling and western blot of 60S fractions; type: cell-based, human; details: TSA 1 μM, 2 h
Procedure: Since RPL24 depletion decreased the levels of three cap-dependently translated proteins, the impact of RPL24 knockdown on overall ribosome and polysome formation in these cells was evaluated. Polysome profiling, which utilizes continuous sucrose gradient fractionation to separate free 40S and 60S ribosomal subunits, 80S ribosomes, and polysomes (two or more ribosomes on one mRNA) was used. […] This observed increase in 40S and 60S subunits relative to 80S ribosomes implies a defect in 40S-60S joining induced by the RPL24 knockdown. Since eIF6 bound to the pre-60S subunit prevents joining of the 40S and 60S subunits and occurs adjacent to RPL24 on 60S (FIG. 3c), immunoblotting on all 60S-containing polysome fractions to evaluate the impact of RPL24 knockdown on eIF6 retention was performed. […] Associated with the observed 60S loss of RPL24 was a striking increase in 60S-associated eIF6 (FIG. 3d). To rule out the possibility that the observed 60S retention of eIF6 might be a false-positive or non-specific artifact of lentiviral expressed RPL24 shRNA, a functionally deficient truncation mutant of RPL24 that eliminates the last 17 amino acids was overexpressed. Polysome profiling of 293T cells expressing intact versus truncated RPL24 protein confirmed that truncated RPL24 can induce 60S retention of eIF6 (FIG. 8).
Polysome profiles to separate the 40S, 60S, 80S and polysomes are carried out by layering cell lysates over a continuous 10-50% sucrose gradient and spun at 38,000 rpm for 2 h as previously described. Fractions are collected using a Retriever 500 fraction collector with a UV (UA6) detector (ISCO Teledyne (Lincoln, Nebr.)).
FIG. 3: RPL24 knockdown reduces 80S and polysome assembly while increasing 60S retention of eIF6. […] (a) Western blots using the indicated antibodies were performed on total cell lysates to assess knockdown efficiency. (b) Lysates were applied to a continuous sucrose gradient (10-50%) and ultracentrifugation followed by fractionation was performed to separate ribosomal subunits and polysomes. […]

SMILES: CC(/C=C/C(=O)NO)=C\[C@@H](C)C(=O)c1ccc(N(C)C)cc1 [TSA, trichostatin-A]
- tubulin acetylation (tubulin): induce
- 60S RPL24 levels (SKBR3 cells): without reducing
- 60S retention of eIF6 (SKBR3 cells): increasing
- 80S and polysome assembly (SKBR3 cells): reduced
